Tests used:
[1] = tested on: CEA-expressing human CRC organoids; assay: CEA-CAR T cell killing of CRC organoids; type: cell-based; conditions: 72 h co-culture, UA vs DMSO
Procedure: In human CRC organoids, CEA-expression was confirmed by flow cytometry […]CEACAM5-APC (487609; FAB41281A; R&D Systems) Before co-culture, CEA-CAR T cells were cultivated in presence or absence of UA for three days. The cytotoxicity assay was performed as described (Schnalzger et al., 2019), using 96 well plates coated with 15 μl Cultrex Basement Membrane Extract, Type 2 per well and organoids were seeded at a ratio of 1:8. Co-culture was performed for three days with 0.5×10^4 CAR T cells per well resuspended in organoid medium (as described above) without IL7/IL15. 100 μl luciferase assay reagent composed of 10% One-Glo EX Reagent (Promega) in lysis buffer (50 mM NaCl, 50 mM Tris-HCl pH 7.4, 1% Triton X-100) was added to each well and incubated at room temperature for 1 h protected from light. 100 μl of each sample was transferred to an opaque 96-well microtiter plate and measured using a SpectraMax iD3 microplate reader (Molecular Devices).

CD19-CAR T cells = type: cell-based, human
Pink1^−/− T cells = assay: aCD3/aCD28 stimulation of Pink1-/- T cells in presence of UA; type: cell-based, mice
Excerpt: UA activates mitophagy in myocytes and hippocampal neurons via a Pink1/Parkin mediated stress-response (D'Amico et al., 2021). […] Moreover, UA stabilized Parkin protein expression (FIG. 4G). To functionally confirm the dependence of UA induced TSCM formation on Pink1/Parkin mediated mitophagy, the inventors activated Pink1^−/− T cells in the presence or absence of UA. Loss of Pink1 prevented the UA-induced lysosome formation as well as the decrease in mitochondrial content (FIG. 4H, I).
(§1) Splenic murine T cells were isolated from mice aged 6-20 weeks by negative selection with EasySep mouse T cell isolation kit (Stem cell) according to the manufacturer's instructions. To monitor T cell proliferation, purified T cells were loaded with CellTrace Violet (C34557 ThermoFisher Scientific). T cell activation was initiated using αCD3/CD28 activation beads (11456D; ThermoFisher Scientific) at a ratio of 25 μl dynabeads per 0.5×10^6 T-cells. Cells were activated with 25-50 μM Urolithin A (Tocris) or DMSO in T cell activation Medium (RPMI (ThermoFisher Scientific) 10% FBS (South America origin), 10 mM Hepes (Sigma), 1× Non-Essential Amino Acid, 1 mM Sodium Pyruvate, 50 μM B-Mercaptoethanol, 100 U/ml penicillin, 100 μg/ml streptomycin and 2 mM Glutamax (ThermoFisher Scientific) for the indicated durations. In selected experiments, cells were stimulated in the presence of inhibitors, namely TCF1i (ICG-001; SelleckChem; 10 μM) and PGC-1αi (SR-18292, Sigma-Aldrich; 10 μm,). For subsequent analysis, activating beads were magnetically removed prior antibody staining. For human T cells, peripheral blood mononuclear cells were purified with a Ficoll-Paque (GE healthcare) gradient. T cells were enriched with EasySep Human T Cell Isolation Kit (StemCell) and activated with dynabead Human T-Activator CD3/CD28 for T Cell Expansion and Activation Kit (11131D; ThermoFisher Scientific), similar to murine T cell stimulation.
(§2) For flow cytometric analysis of mitochondria and lysosomes 500 μl of Mitotracker Red (200 nM; ThermoFisher) or Lysotracker Red DND-99 (75 nM; ThermoFisher) were applied followed by surface staining. To study changes in mitochondrial membrane potential, Mitoprobe TMRM kit (ThermoFisher) was used according to the manufacturer's instructions. Cell proliferation was assessed by CellTrace Violet (Invitrogen, C34557) at a concentration of 5 μM according to manufacturer's instructions. For human samples, cells were stained as described above with Fixable Viability Dye-eF780, αCD95-BV421 (DX2; 562616), αCD62L-PE (DREG-56; 555544), αCCR7-AF700 (150503; 561143), αCD45RO-APC (UCHL; 559865), αCD45RA-FITC (HI100; 555488), αCD8-PE-CF594 (RPA-T8; 562282) and αCD4-BV786 (OKT4; 566806) from BD.

Pgam5^−/− CD8^+ T cells = assay: aCD3/aCD28 stimulation of Pgam5-/- T cells in presence of UA; type: cell-based, mice
Excerpt: Next the inventors examined whether the observed upregulation of TCF1 was a result of enhanced Wnt signalling. […] To explore whether Pgam5 may be involved in UA-induced Wnt activation, the inventors examined Pgam5 localization upon UA administration. […] More importantly, Pgam5 loss blocked the UA-dependent expansion of CD44^−CD62L^+Sca1^Hi TSCM cells (FIG. 5I).
as §1, §2

human CD3^+ T cells = assay: aCD3/aCD28 stimulation of human T cells in presence of UA; type: cell-based
Excerpt: Finally, the inventors aimed to determine whether UA causes expansion of TSCM cells in human CD8^+ T cells. The inventors isolated human CD3^+ T cells from PBMCs of healthy donors and stimulated them with aCD3/aCD28 beads in vitro in the presence of UA (FIG. 6A). Indeed, UA increased the frequency of human TSCM cells based on the expression of CD45RA^+CCR7^HiCD62L^+CD95^+CD8^+ in five out of five individual donors (FIG. 6B).
as §1, with “T cells were enriched with EasySep Human T Cell Isolation Kit (StemCell) and activated with dynabead Human T-Activator CD3/CD28 for T Cell Expansion and Activation Kit (11131D; ThermoFisher Scientific), similar to murine T cell stimulation.” left out
For flow cytometric analysis of mitochondria and lysosomes 500 μl of Mitotracker Red (200 nM; ThermoFisher) or Lysotracker Red DND-99 (75 nM; ThermoFisher) were applied followed by surface staining. […] Cell proliferation was assessed by CellTrace Violet (Invitrogen, C34557) at a concentration of 5 μM according to manufacturer's instructions. […]

Nalm-6 cells = assay: CD19-CAR T cell killing assay; type: cell-based, human; conditions: 24 h co-culture, CAR T cells generated with UA vs DMSO
Procedure: The cytotoxic activity of CD19-CAR T cells generated in presence or absence of UA was determined by CD19-positive Nalm-6 cell killing. Three days post transduction, CAR expression was determined and normalized to equal CAR T cell levels. Cells were washed twice and 0.5×10^4 CAR T cells were seeded into NutriT medium without cytokines, UA or DMSO. Nalm-6 cells were labeled using CellTrace™ Violet (CTV; Thermo Fisher Scientific, C34557) following manufacturer's instructions and 1×10^4 labeled Nalm-6 cells were added to the CAR T cells (0.5:1 effector to target ratio). The amount of dead target cells was determined via flow cytometry 24 h after start of killing.

[2] = UA treated Pgam5-/- CD8+ T cells, 48 h

What does the source list for `O=c1oc2cc(O)ccc2c2ccc(O)cc12` [UA, Urolithin A]?
killing efficacy of CEA-expressing human CRC organoids [1]: comparable killing efficacy; gene delivery into CD8+ cells (CD19-CAR T cells): did not impair; Markers of exhaustion of CAR T cells (CD19-CAR T cells; UA supplementation): not affected; CAR expressing TSCM cells (CD19-CAR T cells; three days post transduction, UA vs DMSO): markedly increased; CAR expressing TSCM cells, share of CD8+ cells (CD19-CAR T cells; three days post transduction, upon UA exposure): about 60%; UA-induced lysosome formation (Pink1^−/− T cells; Loss of Pink1, 6 h, UA 50 μM): prevented; UA-induced decrease in mitochondrial content (Pink1^−/− T cells; Loss of Pink1, 48 h, UA 50 μM): prevented; cytoplasmic expression of Pgam5 (Pink1^−/− T cells; Pink1-/- CD8+ T cells upon UA exposure): lack of cytoplasmic expression; PGC-1a (Pink1^−/− T cells; Pink1-/- CD8+ T cells, 48 h, UA 50 μM): failed to enhance; TSCM phenotype (Pink1^−/− T cells; Pink1-/- CD8+ T cells, 48 h, UA 25 and 50 μM): failed to exhibit a TSCM phenotype; TCF-1 in CD44-CD62L+CD8+ T cells (Pink1^−/− T cells; Pink1-/-, 48 h, UA 50 μM): less; lysosome formation (Pgam5^−/− CD8^+ T cells; Pgam5-/- CD8+ T cells): still enhanced; mitochondrial content (Pgam5^−/− CD8^+ T cells; Pgam5-/- CD8+ T cells): reduced; PGC-1a (Pgam5^−/− CD8^+ T cells; Pgam5-/- CD8+ T cells, 48 h, UA 50 μM): failed to enhance; UA-dependent expansion of CD44-CD62L+Sca1Hi TSCM cells (Pgam5^−/− CD8^+ T cells; Pgam5 loss, 48 h): blocked; TCF1 (Pgam5^−/− CD8^+ T cells; [2]): failed to upregulate; memory marker CD95 (Pgam5^−/− CD8^+ T cells; [2]): failed to upregulate; frequency of human TSCM cells (CD45RA+CCR7HiCD62L+CD95+CD8+) (human CD3^+ T cells; 48 h, UA 50 μM, five out of five individual donors): increased; TCF1 expression in human CD8+ T cells (human CD3^+ T cells; 48 h, intracellular staining): increased; mitochondrial membrane potential of human CD8+ T cells (human CD3^+ T cells; after 48 hours): decreased; CD19 CAR-T cell mediated killing of NALM-6 leukemia cells (Nalm-6 cells): did not have a negative impact

Reference: US20260069693A1, “UROLITHINS AND T-CELL MEDIATED IMMUNE RESPONSE” (priority 2022, published 2026)
